Measurements: US20230085307A1, “PYRIDAZINONE COMPOUND AND HERBICIDE” (NISSAN CHEMICAL CORPORATION, priority 2019, published 2023)

Key:
[1] = tested on: Japanese bulrush; test: Test Example 1: herbicidal activity, application before weed generation under submerged conditions (Table 16, symbol B); assay type: in vivo, Japanese bulrush (Schoenoplectus juncoides)
Method in brief: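 Alluvial soil was flooded to 4 cm depth, weed seeds were sown mixed and 2.5-leaf rice seedlings were transplanted. On sowing day, the compound's emulsion, diluted in water to a set dose, was applied to the water surface. Plants grew at 25–30 °C and were scored 0–5 after three weeks.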

[2] = tested on: late watergrass; test: Test Example 2: herbicidal activity, application during weed generation under submerged conditions (Table 17, symbol A); assay type: in vivo, late watergrass (Echinochloa oryzicola); details: application during weed generation, submerged conditions
Method in brief: (§1)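 Wagner pot, alluvial soil, 4 cm flood; mixed sowing of all species; greenhouse 25° C.–30° C. Emulsifiable formulation, water-diluted to predetermined dose, applied to paddy water at 1–2 leaf stage. Effect rated at 3 wk using the earlier test's scoring criteria.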

[3] = tested on: oval-leafed pondweed; test: Test Example 2: herbicidal activity, application during weed generation under submerged conditions (Table 17, symbol C); assay type: in vivo, oval-leafed pondweed (Monochoria vaginalis); details: application during weed generation, submerged conditions
Method in brief: as §1

[4] = tested on: Chinese sprangletop; test: Test Example 3: herbicidal effect by foliage application, Wagner pot (Table 18, symbol D); assay type: in vivo, chinese sprangletop (Leptochloa chinensis)
Method in brief: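 Plants were sown in alluvial soil held under 0.1–0.5 cm standing water and grown 14 days in a greenhouse at 25–30 °C. An emulsifiable formulation, water-diluted to the set dose, was then sprayed onto the foliage, and effects were scored three weeks later using previously defined criteria.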

[5] = tested on: southern crabgrass; test: Test Example 4: herbicidal effect by soil treatment (Table 19, symbol F); assay type: in vivo, southern crabgrass (Digitaria ciliaris)
Method in brief: (§2)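 Three weeks of greenhouse growth at 25° C. to 30° C. followed a uniform surface spray of water-diluted emulsion at a predetermined herbicide amount. Seeds had been sown beforehand under about 1.5 cm of sterilized diluvial soil. Grading followed criteria set out in an earlier test.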

[6] = tested on: wild oat; test: Test Example 4: herbicidal effect by soil treatment (Table 19, symbol I); assay type: in vivo, wild oat (Avena fatua)
Method in brief: as §2

[7] = tested on: blackgrass; test: Test Example 4: herbicidal effect by soil treatment (Table 19, symbol J); assay type: in vivo, blackgrass (Alopecurus myosuroides)
Method in brief: as §2

[8] = tested on: Italian ryegrass; test: Test Example 4: herbicidal effect by soil treatment (Table 19, symbol K); assay type: in vivo, Italian ryegrass (Lolium multiflorum)
Method in brief: as §2

[9] = tested on: windgrass; test: Test Example 4: herbicidal effect by soil treatment (Table 19, symbol L); assay type: in vivo, windgrass (Apera spica-venti)
Method in brief: as §2

[10] = tested on: lambsquarters; test: Test Example 4: herbicidal effect by soil treatment (Table 19, symbol O); assay type: in vivo, lambsquarters (Chenopodium album)
Method in brief: as §2

[11] = tested on: persian speedwell; test: Test Example 4: herbicidal effect by soil treatment (Table 19, symbol R); assay type: in vivo, Persian speedwell (Veronica persica)
Method in brief: as §2

[12] = tested on: barnyard grass; test: Test Example 5: herbicidal effect by foliage application, plastic box (Table 20, symbol H); assay type: in vivo, barnyard grass (Echinochloa crus-galli); details: foliage application
Method in brief: (§3)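 Plants sown in sterilized diluvial soil and grown 14 days in a greenhouse at 25° C to 30° C, then sprayed on the foliage with the compound's emulsion diluted in water to a predetermined herbicide amount. Injury to weeds and crops scored three weeks after application on a visual rating scale.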

[13] = tested on: wild oat; test: Test Example 5: herbicidal effect by foliage application, plastic box (Table 20, symbol I); assay type: in vivo, wild oat (Avena fatua); details: foliage application
Method in brief: as §3

[14] = tested on: windgrass; test: Test Example 5: herbicidal effect by foliage application, plastic box (Table 20, symbol L); assay type: in vivo, windgrass (Apera spica-venti); details: foliage application
Method in brief: as §3

[15] = tested on: velvetleaf; test: Test Example 5: herbicidal effect by foliage application, plastic box (Table 20, symbol M); assay type: in vivo, velvetleaf (Abutilon theophrasti); details: foliage application
Method in brief: as §3

[16] = tested on: lambsquarters; test: Test Example 5: herbicidal effect by foliage application, plastic box (Table 20, symbol O); assay type: in vivo, lambsquarters (Chenopodium album); details: foliage application
Method in brief: as §3

[17] = tested on: persian speedwell; test: Test Example 5: herbicidal effect by foliage application, plastic box (Table 20, symbol R); assay type: in vivo, Persian speedwell (Veronica persica); details: foliage application
Method in brief: as §3

[18] = amount of applied herbicide 274 g/ha
[19] = 274 g/ha, three weeks after application
[20] = amount of applied herbicide 320 g/ha
[21] = 320 g/ha, evaluated three weeks after application

SMILES: COc1ccccc1-c1sc2cc(C)ccc2c1-c1c(O)c(C)nn(C)c1=O [3-049]
- Herbicidal effect, B: Japanese bulrush [1, 18]: 3 (Herbicidal rate of 40% or more and less than 70%)
- herbicidal effect rating, A: late watergrass ([2]; AAH 274 g/ha): 4 (Herbicidal rate of 70% or more and less than 90%)
- herbicidal effect rating, C: oval-leafed pondweed ([3]; AAH 274 g/ha): 2 (Herbicidal rate of 20% or more and less than 40%)
- herbicidal effect on Chinese sprangletop (D) ([4]; 274 g/ha): 5 (Herbicidal rate of 90% or more (almost completely withered))
- F: southern crabgrass, herbicidal effect grade [5, 18]: 3 (Herbicidal rate of 40% or more and less than 70%)
- I: wild oat, herbicidal effect grade [6, 18]: 3 (Herbicidal rate of 40% or more and less than 70%)
- J: blackgrass, herbicidal effect grade [7, 18]: 3 (Herbicidal rate of 40% or more and less than 70%)
- K: Italian ryegrass, herbicidal effect grade [8, 18]: 5 (Herbicidal rate of 90% or more (almost completely withered))
- L: windgrass, herbicidal effect grade [9, 18]: 5 (Herbicidal rate of 90% or more (almost completely withered))
- O: lambsquarters, herbicidal effect grade [10, 18]: 4 (Herbicidal rate of 70% or more and less than 90%)
- R: persian speedwell, herbicidal effect grade [11, 18]: 4 (Herbicidal rate of 70% or more and less than 90%)
- H: barnyard grass, herbicidal effect grade [12, 19]: 4 (Herbicidal rate of 70% or more and less than 90%)
- I: wild oat, herbicidal effect grade [13, 19]: 5 (Herbicidal rate of 90% or more (almost completely withered))
- L: windgrass, herbicidal effect grade [14, 19]: 5 (Herbicidal rate of 90% or more (almost completely withered))
- M: velvetleaf, herbicidal effect grade [15, 19]: 5 (Herbicidal rate of 90% or more (almost completely withered))
- O: lambsquarters, herbicidal effect grade [16, 19]: 4 (Herbicidal rate of 70% or more and less than 90%)
- R: persian speedwell, herbicidal effect grade [17, 19]: 5 (Herbicidal rate of 90% or more (almost completely withered))

SMILES: CCCCCOc1cccc(-c2sc3ccc(F)cc3c2-c2c(O)c(C)nn(C)c2=O)c1 [2-225]
- Herbicidal effect on B: Japanese bulrush (grade 0-5) ([1]; 320 g/ha applied herbicide): 3 (Herbicidal rate of 40% or more and less than 70%)
- herbicidal effect rating, A: late watergrass ([2]; AAH 320 g/ha): 3 (Herbicidal rate of 40% or more and less than 70%)
- herbicidal effect rating, C: oval-leafed pondweed ([3]; AAH 320 g/ha): 0 (Herbicidal rate of 5% or less (almost no effect))
- herbicidal effect on D: Chinese sprangletop [4, 20]: 3 (Herbicidal rate of 40% or more and less than 70%)
- herbicidal effect on F: southern crabgrass [5, 20]: 0 (Herbicidal rate of 5% or less (almost no effect))
- herbicidal effect on I: wild oat [6, 20]: 0 (Herbicidal rate of 5% or less (almost no effect))
- herbicidal effect on J: blackgrass [7, 20]: 0 (Herbicidal rate of 5% or less (almost no effect))
- herbicidal effect on K: Italian ryegrass [8, 20]: 0 (Herbicidal rate of 5% or less (almost no effect))
- herbicidal effect on L: windgrass [9, 20]: 0 (Herbicidal rate of 5% or less (almost no effect))
- herbicidal effect on O: lambsquarters [10, 20]: 3 (Herbicidal rate of 40% or more and less than 70%)
- herbicidal effect on R: persian speedwell [11, 20]: 0 (Herbicidal rate of 5% or less (almost no effect))
- herbicidal effect on H: barnyard grass (criteria 0-5) [12, 21]: 3 (Herbicidal rate of 40% or more and less than 70%)
- herbicidal effect on I: wild oat (criteria 0-5) [13, 21]: 0 (Herbicidal rate of 5% or less (almost no effect))
- herbicidal effect on L: windgrass (criteria 0-5) [14, 21]: 4 (Herbicidal rate of 70% or more and less than 90%)
- herbicidal effect on M: velvetleaf (criteria 0-5) [15, 21]: 5 (Herbicidal rate of 90% or more (almost completely withered))
- herbicidal effect on O: lambsquarters (criteria 0-5) [16, 21]: 4 (Herbicidal rate of 70% or more and less than 90%)
- herbicidal effect on R: persian speedwell (criteria 0-5) [17, 21]: 5 (Herbicidal rate of 90% or more (almost completely withered))
